Test results reported in article PMC4658560, “Assessment of pharmacokinetic compatibility of short acting CDRI candidate trioxane derivative, 99–411, with long acting prescription antimalarials, lumefantrine and piperaquine” (Scientific Reports, 2015).
Where two headings read alike, the source gives them in different places.

Legend:
[1] = Stability in rat plasma (autosampler, bench top, freeze/thaw, long-term freezer); type: in vitro ADME
Experimental: Validation was carried out as per US FDA bioanalytical method validation guidelines. The extraction recovery of analytes, through protein precipitation extraction procedure, was determined by comparing the peak areas of extracted plasma (pre-spiked) standard QC samples (n = 6) to those of the post-spiked standards at equivalent concentrations (QC low, QC medium and QC high concentrations for the analytes and 50 ng/mL for IS). Specificity and selectivity was studied by using independent plasma samples from six different rats to investigate the potential interferences at the LC peak region for analyte and IS, using the proposed extraction procedure and chromatographic–MS conditions. Matrix effect was determined by comparing the responses of the post-extracted plasma standard QC samples (n = 6) with the response of analytes from neat standard samples, for all analytes at LLOQ[22]. Calibration curve was constructed using […] calibration standards of LUME and 99–411 and of PPQ and 99–411 (3.9, 7.8, 15.6, 31.25, 62.5, 125, 250 and 500 ng/mL) by spiking 90 μL of pooled drug free rat plasma with the appropriate working standard solution of the analytes (10 μL). The intra-day assay precision and accuracy were estimated by analyzing six replicates at four the QC levels, i.e., 3.9/7.8, 10, 100 and 400 ng/mL,for both the combinations. The inter-assay precision was determined by analyzing the four levels QC samples on three different runs. The criteria for acceptability of the data included accuracy within ± 15% deviation from the nominal values and a precision of within ± 15% relative standard deviation (R.S.D.), except for LLOQ, where it should not exceed ± 20% of accuracy as well as precision. All stability studies were conducted at two concentration levels, i.e. […] The dilution integrity experiment was performed to validate the dilution test to be carried out on higher analyte concentrations (above the upper limit of quantification), which may be encountered during real subject samples analysis. Dilution integrity experiments were carried out by 20 times dilution of plasma samples containing 8000 ng/mL of LUME and 99–411 and PPQ and 99–411 with blank plasma to obtain samples containing 400 ng/mL of the respective combinations.

[2] = In situ single-pass intestinal perfusion permeability study; type: in vivo; conditions: male, SD, rat, other: single-pass perfusion through the jejunal lumen, rat jejunum, read-out: effective permeability
Experimental: Single-pass intestinal perfusion studies in rats (n = 5 per group) were performed using established methods adapted from the literature. Briefly, male SD rats were fasted overnight for 12 to 16 h with free access to water and anaesthetized using an intra-peritoneal injection of urethane (1 g/kg) and placed on a heated pad to keep normal body temperature. Upon verification of the loss of pain reflex, a midline longitudinal abdominal incision was made, and the lumen of the jejunum (10 cm) was catherised and flushed with 10 ml of saline pre-warmed to 37 °C. The solution of analytes (10 μM) was prepared in perfusion buffer and passed at a flow rate of 0.2 mL/min through the lumen. After allowing 30 min to reach steady-state outlet concentrations, outlet perfusate samples were collected every 15 min for 120 min perfusion period. Phenol red was used as a marker of osmosis/zero permeability. At the end, the length of segment was measured without stretching and finally the animal was euthanized. Samples were analysed by LC-MS/MS after diluting 20 times with mobile phase.

[3] = Pharmacokinetic interaction study, oral administration alone or in combination in rats; type: in vivo, rat; conditions: for AUC(0-inf) / CL/F / Cmax / Tmax / Vd/F / half-life / AUC(0-t): rat, plasma, po
Experimental: Rats were divided into five groups (n = 5, each); three control groups (LUME 10 mg/kg, oral, suspension in 0.25% Sodium CMC; PPQ 50 mg/kg, oral, solution in triple distilled water; and 99–411 70 mg/kg, oral, suspension in 0.25% Sodium CMC) and two co-administration group (70 mg/kg of oral 99–411 & 10 mg/kg of oral LUME; and 70 mg/kg of oral 99–411 & 50 mg/kg of oral PPQ). The rats were fasted overnight (14–16 h) prior to the experiment but given free access to water. Blood samples were collected from the retro-orbital plexus into heparinized microfuge tubes at 0.25, 0.50, 1, 3, 6, 9, 11, 13, 15, 24, 48, 72 and 120 h post-dosing and plasma was harvested by centrifuging the blood at 15000 × g for 10 min and stored frozen at –70 ± 10 °C until bioanalysis. Plasma data were subjected to non-compartmental pharmacokinetics analysis using WinNonlin (version 5.1, Pharsight Corporation, Mountain View, USA). The pharmacokinetic parameters were compared using student’s t test. […] The relative bioavailability (RB%) was calculated according to equation 1 as follows: […]

P-gp = conditions: cited from earlier work
CYP3A4 = system: CYP3A4; set-up: method as in PMID 21503937, PMID 10727880, PMID 11463111; conditions: cited from earlier work
human P-gp = target: T1, human P-gp (Homo sapiens, UniProt P08183); test: Human P-gp ATPase assay (vanadate-sensitive ATPase activity); type: biochemical; conditions: concentration not given
T1 construct: purchased BD Gentest (Woburn, MA)

[4] = 10 mg/kg, LUME 10 mg/kg oral alone (control), rats
[5] = 10 mg/kg, LUME 10 mg/kg oral co-administered with 99–411 70 mg/kg, rats
[6] = 50 mg/kg, PPQ 50 mg/kg oral alone (control), rats
[7] = PPQ 50 mg/kg oral co-administered with 99–411 70 mg/kg, rats

T1 sequence (P08183 whole entry): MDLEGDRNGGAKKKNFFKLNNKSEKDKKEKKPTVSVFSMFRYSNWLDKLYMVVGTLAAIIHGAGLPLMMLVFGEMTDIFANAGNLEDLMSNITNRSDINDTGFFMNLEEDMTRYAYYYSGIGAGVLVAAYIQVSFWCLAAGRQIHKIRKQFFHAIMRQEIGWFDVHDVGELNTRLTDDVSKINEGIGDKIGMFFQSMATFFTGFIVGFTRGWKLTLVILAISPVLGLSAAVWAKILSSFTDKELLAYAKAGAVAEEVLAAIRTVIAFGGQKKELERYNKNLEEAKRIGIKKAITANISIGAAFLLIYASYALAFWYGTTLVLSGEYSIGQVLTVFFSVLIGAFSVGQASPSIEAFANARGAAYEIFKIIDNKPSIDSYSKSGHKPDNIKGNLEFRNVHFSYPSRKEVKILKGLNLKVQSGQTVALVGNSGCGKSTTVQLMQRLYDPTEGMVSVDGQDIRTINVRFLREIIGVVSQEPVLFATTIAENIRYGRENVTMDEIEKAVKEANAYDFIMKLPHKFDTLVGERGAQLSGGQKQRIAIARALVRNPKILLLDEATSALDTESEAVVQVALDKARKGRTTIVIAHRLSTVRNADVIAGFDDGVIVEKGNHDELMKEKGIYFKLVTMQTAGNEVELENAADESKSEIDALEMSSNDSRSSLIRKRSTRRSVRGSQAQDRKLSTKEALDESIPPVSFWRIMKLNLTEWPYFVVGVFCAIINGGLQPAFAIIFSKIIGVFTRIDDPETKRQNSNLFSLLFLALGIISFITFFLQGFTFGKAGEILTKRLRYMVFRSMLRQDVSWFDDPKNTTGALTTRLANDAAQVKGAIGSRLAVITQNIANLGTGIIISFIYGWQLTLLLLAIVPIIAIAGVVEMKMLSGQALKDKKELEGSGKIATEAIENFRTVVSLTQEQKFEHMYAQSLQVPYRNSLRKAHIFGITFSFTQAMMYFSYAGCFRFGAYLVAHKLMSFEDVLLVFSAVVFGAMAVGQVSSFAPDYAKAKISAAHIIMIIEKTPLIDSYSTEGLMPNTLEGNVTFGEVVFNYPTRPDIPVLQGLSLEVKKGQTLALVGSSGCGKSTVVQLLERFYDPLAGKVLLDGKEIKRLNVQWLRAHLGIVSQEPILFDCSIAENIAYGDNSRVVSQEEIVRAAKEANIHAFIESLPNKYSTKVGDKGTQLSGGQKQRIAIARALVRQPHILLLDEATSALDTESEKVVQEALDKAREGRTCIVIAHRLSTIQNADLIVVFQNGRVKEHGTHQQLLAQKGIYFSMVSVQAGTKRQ

CCCCN(CCCC)CC(O)c1cc(Cl)cc2c1-c1ccc(Cl)cc1/C2=C/c1ccc(Cl)cc1 (centres unmarked) [LUME, lumefantrine]
Accuracy (%) in stability test ([1]; LUME/99-411 method, 10 ng/mL, 6 h (BT, bench top, room temperature)): 91.73% | Accuracy (%) in stability test ([1]; LUME/99-411 method, 10 ng/mL, 24 h (AS, autosampler)): 98.45% | Accuracy (%) in stability test ([1]; LUME/99-411 method, 10 ng/mL, 15 day at -70 °C): 97.80% | Accuracy (%) in stability test ([1]; LUME/99-411 method, 10 ng/mL, FT-3 (three freeze/thaw cycles)): 91.33% | Accuracy (%) in stability test ([1]; LUME/99-411 method, 400 ng/mL, 6 h (BT, bench top, room temperature)): 95.94% | Accuracy (%) in stability test ([1]; LUME/99-411 method, 400 ng/mL, 24 h (AS, autosampler)): 100.13% | Accuracy (%) in stability test ([1]; LUME/99-411 method, 400 ng/mL, 15 day at -70 °C): 101.30% | Accuracy (%) in stability test ([1]; LUME/99-411 method, 400 ng/mL, FT-3 (three freeze/thaw cycles)): 100.96% | Papp at 120 min, 10 μM ([2]; lumefantrine co-perfused with 99–411, 10 μM): 46.8 ± 13.7 ×10⁻⁶ cm/s | Papp at 120 min, 10 μM ([2]; lumefantrine control, 10 μM): 40.3 ± 4.9 ×10⁻⁶ cm/s | AUC(0-inf) [3, 4]: 17400 ± 3290 ng·h/mL | CL/F [3, 4]: 9.83 mL/min/kg | Cmax [3, 4]: 1810 ± 750 ng/mL | Tmax [3, 4]: 3.75 ± 1.5 h | Vd/F [3, 4]: 39.4 ± 6.26 L/kg | half-life [3, 4]: 46.9 ± 6.52 h | AUC(0-t) ([3]; 10 mg/kg, LUME 10 mg/kg oral alone (control), rats n=5, mean ± SD): 16500 ± 2960 ng·h/mL | AUC(0-inf) [3, 5]: 16500 ± 3510 ng·h/mL | AUC(0-t) [3, 5]: 15400 ± 3580 ng·h/mL | CL/F [3, 5]: 10.5 mL/min/kg | Cmax [3, 5]: 1740 ± 670 ng/mL | Tmax [3, 5]: 3.6 ± 1.34 h | Vd/F [3, 5]: 46.4 ± 16.4 L/kg | half-life [3, 5]: 50.8 ± 10.2 h | P-gp substrate status (P-gp): P-gp substrate | CYP3A4 substrate status (CYP3A4): CYP3A4 substrates

Clc1ccc2c(N3CCN(CCCN4CCN(c5ccnc6cc(Cl)ccc56)CC4)CC3)ccnc2c1 [PPQ, piperaquine]
Accuracy (%) in stability test ([1]; PPQ/99-411 method, 10 ng/mL, 6 h (BT, bench top, room temperature)): 99.31% | Accuracy (%) in stability test ([1]; PPQ/99-411 method, 10 ng/mL, 24 h (AS, autosampler)): 105.78% | Accuracy (%) in stability test ([1]; PPQ/99-411 method, 10 ng/mL, 15 days at -70 °C): 106.75% | Accuracy (%) in stability test ([1]; PPQ/99-411 method, 10 ng/mL, FT-3 (three freeze/thaw cycles)): 99.51% | Accuracy (%) in stability test ([1]; PPQ/99-411 method, 400 ng/mL, 6 h (BT, bench top, room temperature)): 102.13% | Accuracy (%) in stability test ([1]; PPQ/99-411 method, 400 ng/mL, 24 h (AS, autosampler)): 102.48% | Accuracy (%) in stability test ([1]; PPQ/99-411 method, 400 ng/mL, 15 days at -70 °C): 103.59% | Accuracy (%) in stability test ([1]; PPQ/99-411 method, 400 ng/mL, FT-3 (three freeze/thaw cycles)): 100.98% | increase of Vd/F of PPQ with 99–411 co-administration ([3]; oral, rats): 194.49% | increase of clearance (Cl/F) of PPQ with 99–411 co-administration ([3]; oral, rats): 41.94% | decrease of AUC0-∞ of PPQ in presence of 99–411 ([3]; oral, rats, vs PPQ alone, p = 0.0018): 61.39% | decrease of Cmax of PPQ in presence of 99–411 ([3]; oral, rats, vs PPQ alone, p = 0.0154): 61.67% | AUC(0-inf) [3, 6]: 31500 ± 2680 ng·h/mL | CL/F [3, 6]: 26.7 mL/min/kg | Cmax [3, 6]: 890 ± 230 ng/mL | Tmax [3, 6]: 6.6 ± 1.34 h | Vd/F [3, 6]: 49 ± 8.38 L/kg | half-life [3, 6]: 21.4 ± 4.39 h | AUC(0-t) ([3]; 50 mg/kg, PPQ 50 mg/kg oral alone (control), rats n=5, mean ± SD): 28100 ± 2790 ng·h/mL | AUC(0-inf) [3, 7]: 19400 ± 5290 ng·h/mL | AUC(0-t) [3, 7]: 17000 ± 5030 ng·h/mL | CL/F [3, 7]: 45.5 mL/min/kg | Cmax [3, 7]: 540 ± 110 ng/mL | Tmax [3, 7]: 6 h | Vd/F [3, 7]: 166 ± 71.7 L/kg | half-life [3, 7]: 41.7 ± 11.8 h

CC(C)NCC(O)COc1cccc2ccccc12 (centres unmarked) [propranolol]
basal ATPase activity in the presence of the negative control (human P-gp): 0.96
